Data reported in patent publication US10874103B2, “Antibacterial composition comprising an acetal or a long-chain alkyl hexitane ether” (TEREOS STARCH & SWEETENERS BELGIUM, priority 2014, dated 2020).

Assays:
Format in all cases: cell-based
[1] = system: S. aureus (ATCC® 292213™); test: MIC, 96-well microplate microdilution (Example 4); settings: ATCC 292213; Mueller-Hinton medium, 18 h at 37° C.
Method: (§1) The bacteriostatic properties of the derivatives are evaluated by measuring their minimum inhibitory concentration (MIC) on the bacteria tested. Such a measurement is made using the 96-well microplate microdilution method according to the conditions defined below.
(§2) The minimum inhibitory concentrations (MIC) are tested on Gram-positive bacterial strains according to the recommendations of the “Clinical Laboratory Standards Institute” (Clinical-Laboratory-Standards-Institute, 6th ed. Approved standard M100-S17. CLSI, Wayne, Pa., 2007).
(§3) The Gram-positive bacteria studied are as follows: L. monocytogenes (CIP 103575), E. faecalis (ATCC® 29212™) and S. aureus (ATCC® 292213™).
(§4) The cultures studied, freshly isolated (after incubation on a blood agar at 37° C. for 18 h), are taken up in sterile water (10 mL) until a 0.5 McFarland (Mc) suspension i.e. 1 to 2×10^8 CFU (bacteria)/cm^3 is obtained. The bacterial suspension was then diluted to obtain a final concentration of 5×10^5 CFU/cm^3.
(§5) Each well contains an identical quantity of Mueller-Hinton medium (a rich medium for bacterial culture) and bacteria with final 5×10^5 CFU/cm^3.
(§6) The test compounds of interest are solubilized in 2.5% m of ethanol before being diluted to different concentrations two by two.
(§7) On the multiwell plate, a first series has been planned comprising the culture medium without the test compound of interest. It corresponds to the growth control (control well). These controls serve as reference for comparing bacterial growth with that of the subsequent wells comprising different concentrations of the test compound of interest. The second series of wells comprises the mother solution for the test compound of interest for a concentration in the wells of 4 mM. Each series of wells was diluted two by two until the last series for a final concentration of 0.003 mM. Each concentration is duplicated in the same plate. The plate is incubated for 18 h at 37° C. […] If there is antibacterial activity, the bacterial growth is inhibited, which means that no turbidity or bacterial residue is present.
(§8) Tests have been conducted on Gram-positive bacteria with sorbitan derivatives. […] After sterilization the solutions are diluted in water. The results obtained for antimicrobial tests on the 3 bacterial strains L. monocytogenes (CIP 103575), E. faecalis (ATCC® 29212™) and S. aureus (ATCC® 292213™) are summarized in Table 1.

[2] = system: L. monocytogenes (CIP 103575); test: MIC, 96-well microplate microdilution (Example 4); settings: Mueller-Hinton medium, 18 h at 37° C.
Method: as §1, §2, §3, §4, §5, §6, §7, §8

[3] = system: E. faecalis (ATCC® 29212™); test: MIC, 96-well microplate microdilution (Example 4); settings: Mueller-Hinton medium, 18 h at 37° C.
Method: as §1, §2, §3, §4, §5, §6, §7, §8

[4] = system: Listeria: L. monocytogenes strains; test: MIC microdilution on wider panel (Example 8), Listeria strains
Method: The cultures studied, freshly isolated (after incubation on a blood agar at 37° C. for 18 h), are taken up in sterile water (10 mL) until a 0.5 McFarland (Mc) suspension i.e. at 1 to 2×10^8 CFU (bacteria)/cm^3 is obtained. The bacterial suspension was then diluted to obtain a final concentration of 1×10^6 CFU/cm^3. Each well contains an identical quantity of Mueller-Hinton medium (a rich medium for bacterial culture) and bacteria with final 0.5×10^6 CFU/cm^3. The test compounds of interest are solubilized in ethanol or DMSO at 25 mg/mL before being diluted to different concentrations two by two. On the multiwell plate, a first series has been planned comprising the culture medium without the test compound of interest. It corresponds to the growth control (control well). These controls serve as reference for comparing bacterial growth with that of the subsequent wells comprising different concentrations of the test compound of interest. The second series of wells comprises the mother solution for the test compound of interest for a concentration in the wells of 256 mg (7 mM). Each series of wells was diluted two by two until the last series for a final concentration of 0.25 mg/L (0.0007 mM). Each concentration is duplicated in the same plate. The plate is incubated for 18 h at 37° C. […] If there is antibacterial activity, the bacterial growth is inhibited, which means that no turbidity or bacterial residue is present. The minimum inhibitory concentrations (MIC) are tested on Gram-positive bacterial strains according to the recommendations of the “Clinical Laboratory Standards Institute” (Clinical-Laboratory-Standards-Institute, 6th ed. Approved standard M100-S17. CLSI, Wayne, Pa., 2007). The clinical strains have been isolated in the Hospice de Lyon. Listeria: L. monocytogenes (CIP 103575), clinical strain isolated from hemoculture (015189074801, LM1), a strain isolated from cerebrospinal liquid (015170199001, LM2), clinical strains isolated from hemoculture (015181840701, LM3). The cultures studied, freshly isolated (after incubation on a blood agar at 37° C. for 18 h), are taken up in sterile water (10 mL) until a 0.5 McFarland (Mc) suspension i.e. at 10^8 CFU (bacteria)/cm^3 is obtained. The bacterial suspension was then diluted to obtain a final concentration of 10^6 CFU/cm^3.

**Q.** Which results are given for Dodecyl-1,4-d-sorbitan [Example 2e]?
**A.** Minimum inhibitory concentration (MIC) S. aureus [1]: 120 µM; Minimum inhibitory concentration (MIC) L. monocytogenes [2]: 120 µM; Minimum inhibitory concentration (MIC) E. faecalis [3]: 120 µM; Minimum inhibitory concentration (MIC) CIP 103575 ([4]; L. monocytogenes CIP 103575): 32 µg/mL; Minimum inhibitory concentration (MIC) LM3 ([4]; clinical strain from hemoculture 015181840701): 32 µg/mL; Minimum inhibitory concentration (MIC) LM1 ([4]; clinical strain from hemoculture 015189074801): 16 µg/mL; Minimum inhibitory concentration (MIC) LM2 ([4]; strain from cerebrospinal liquid 015170199001): 32 µg/mL
